Setting [1] is: 4 grams in total added to 600 milliliters of urine.
Where [2] appears, read: 5 grams in total added to 600 milliliters of urine.

Where two headings read alike, the source gives them in different places.

Experimental: Accordingly, various compositions were tested to determine their effect on the pH when added to 600 milliliters of urine.

For `O=C(O)CC(O)(CC(=O)O)C(=O)O` [Pure citric acid in granular form, citric acid], the “Resulting pH” value is, setting by setting: under setting [1], 3.8; under setting [2], 3.7.

Take `O=C(O)CCC(=O)O` [Pure succinic acid in granular form, succinic acid]: under setting [2], the “Resulting pH” value was 4.2.

As to `O=C(O)C(O)C(O)C(=O)O` (centres unmarked) [Pure tartaric acid in granular form, tartaric acid], the “Resulting pH” value came to 3.4 under setting [1] and 3.3 under setting [2].

Source of the values: patent publication US20070154445A1, “Compositions, methods and kits for preventing the decomposition of urine” (priority 2006, published 2007).
